Assay results from article PMC7835231, “Human organoid biofilm model for assessing antibiofilm activity of novel agents” (NPJ Biofilms and Microbiomes, 2021).
“Also recorded” adds a separate entry of the source.

Assays:
[1] = tested on: PAO1-lux biofilm; test: One-day or three-day PAO1-lux biofilm on N/TERT epidermal skin model, CFU count and luminescence; assay type: cell-based, Pseudomonas aeruginosa; conditions: for antibiofilm activity (CFU recovered) against pre-established PAO1-lux biofilm: peptide 0.1% topical, 4 h, 5 to 6 biological replicates, Kruskal–Wallis, Dunn's test versus control
Text: (§1) Bacterial strains used in this study include USA300-LAC[56] (referred to as MRSA), and a luminescent MRSA strain SAP149[57] (referred to as MRSA-lux), Pseudomonas aeruginosa strain PAO1[58] and a luminescent strain of P. aeruginosa[59] (PAO1-lux). Bacteria strains used for confocal microscopy imaging include S. aureus USA300-LAC transformed with a pKK22 plasmid expressing a far-red fluorescent protein (MRSA-FarRed), as well as P. aeruginosa PAO1 (PAO1-mCherry), transformed with an mCherry expressing plasmid, pMCh-23[60]. All S. aureus strains were grown overnight in TSB containing 1% D-glucose at 37 °C with shaking at 180 rpm, sub-cultured to mid-exponential growth phase in TSB 1% D-glucose. Bacteria were harvested and resuspended in sterile PBS to a concentration of 2 × 10^8 CFU/ml before seeding onto skin surface. All P. aeruginosa strains were grown in LB under the same conditions as mentioned above, subcultured in LB medium, and resuspended in PBS at 2 × 10^8 CFU/ml before seeding.
(§2) Skin models were established using a modification of described methods. Briefly, 3 × 10^5 N/TERT cells in 400 μl DermaLife K Keratinocyte Complete Medium with LifeFactors (5 μg/ml rh Insulin LifeFactor, 6 mM L-Glutamine LifeFactor, 1 μM Epinephrine LifeFactor, 5 μg/ml Apo-Transferrin LifeFactor, 0.5 ng/ml rh TGF-α LifeFactor, 0.4% Extract P LifeFactor, 100 ng/ml Hydrocortisone Hemisuccinate LifeFactor) were seeded onto each filter insert (ThinCert™ Cell culture insert, Greiner bio-one, Kremsmünster, Austria) in a 12-well ThinCert™ Plate (Greiner bio-one) holding 4.1 ml/well DermaLife K Keratinocyte Complete Medium with LifeFactors below each filter. Medium was refreshed every second day until N/TERT cells reached confluency in 3-4 days. Culture media both on top and below the filter were then switched to DMEM/Ham’s F-12/CnT-Prime 3D Barrier Media in a 3:1:4 ratio supplemented with 0.1 μg/ml hydrocortisone, 0.125 μg/ml isoproterenol, 0.25 μg/ml bovine insulin, 26.5 pM selenious acid, 5 mM L-serine, 5 μM L-carnitine, 1.6 mg/ml BSA, 25 μM palmitic acid, 15 μM linoleic acid and 7 μM arachidonic acid. Medium on top of the filters was removed the next day to allow air-exposure, which induced differentiation and stratification of the epidermis. After 2–3 days, linoleic acid concentration was increased to 30 μM. The skin samples were cultured for 10 days at air–liquid interface at 37 °C and 7.3% CO2 with medium being refreshed every 2–3 days.
(§3) One million MRSA or PAO1, or luminescent MRSA-lux or PAO1-lux, or fluorescently-tagged MRSA-FarRed or PAO1-mCherry resuspended in PBS were seeded (5 μl of 2 × 10^8 CFU/ml) in the center of the skin model, cultured at 37 °C and 7.3% CO2 to allow the establishment of bacterial biofilms. One day or three days after inoculation, 30 μl of 0.1% (1 mg/ml) or 0.4% (4 mg/ml) DJK-5 peptide was added on top of the biofilm for 4 h. […] To visualize biofilms, skin samples seeded with luminescent bacteria were imaged using the ChemiDoc Imaging System (Bio-Rad). To quantify bacterial counts, skin samples, together with the filter inserts, were excised using a disposable scalpel (VWR, Radnor, PA), sonicated in 1.5 ml PBS, vortexed, serially diluted, and plated on LB agar plates. The cut-off of the Y-axis in each figure indicates the detection limit of CFU count while bars indicate the geometric mean of recovered CFU.

[2] = tested on: IL-1β production; test: IL-1β ELISA of culture supernatant, MRSA-infected burned skin; assay type: cell-based, human
Description: (§4) Thermal damage was created by burning 10-day air–liquid interface skins at 100 °C for 4 s with a digital soldering iron (FX888D, American Hakko Products, Inc., Santa Clarita, CA). The skin filter inserts were transferred to 12-well plates (Sigma-Aldrich) containing 800 μl/well fresh culture medium prior to bacterial infection. MRSA biofilm was established by seeding 2 × 10^6 CFU in 5 μl PBS on top of the thermal damaged skin and cultured at 37 °C and 5% CO2 for 24 h. DJK-5 peptide (30 μl of 0.4%) alone or in combination with 0.01%, 0.1%, or 0.4% 1002 was administered on top of the pre-formed biofilm. Skin samples were collected 24 h post peptide treatment for colony count.
(§5) At the time of colony quantification, culture supernatants below the skin filter inserts were harvested for measuring cytotoxicity by the lactate dehydrogenase assay using a Cytotoxicity Detection Kit (Roche Diagnostics, Basel, Switzerland), according to the manufacturer’s instructions. Untreated skin samples or skin samples treated with 5% Triton X-100 were used as negative (0% toxicity) or positive (100% toxicity) control, respectively. Culture supernatants were also used to measure IL-1β and IL-8 production using ELISA kits from eBioscience (San Diego, CA).

[3] = tested on: P. aeruginosa PAO1 biofilm; test: One-day PAO1 biofilm on N/TERT epidermal skin model, CFU count; assay type: cell-based, Pseudomonas aeruginosa; conditions: 1-day biofilm; 0.4% (120 µg) DJK-5, 4 h; control 1.3 × 10^8 CFU/skin; geometric mean of 5 to 8 biological replicates
Text: as §1, with “All P. aeruginosa strains were grown in LB under the same conditions as mentioned above, subcultured in LB medium, and resuspended in PBS at 2 × 10^8 CFU/ml before seeding.” left out
One million MRSA or PAO1, or luminescent MRSA-lux or PAO1-lux, or fluorescently-tagged MRSA-FarRed or PAO1-mCherry resuspended in PBS were seeded (5 μl of 2 × 10^8 CFU/ml) in the center of the skin model, cultured at 37 °C and 7.3% CO2 to allow the establishment of bacterial biofilms. […] To quantify bacterial counts, skin samples, together with the filter inserts, were excised using a disposable scalpel (VWR, Radnor, PA), sonicated in 1.5 ml PBS, vortexed, serially diluted, and plated on LB agar plates. […]

[4] = tested on: IL-8 production; assay type: cell-based, human
Text: (§6) At the time of colony quantification, culture supernatants below the skin filter inserts were harvested for measuring cytotoxicity by the lactate dehydrogenase assay using a Cytotoxicity Detection Kit (Roche Diagnostics, Basel, Switzerland), according to the manufacturer’s instructions. Untreated skin samples or skin samples treated with 5% Triton X-100 were used as negative (0% toxicity) or positive (100% toxicity) control, respectively. Culture supernatants were also used to measure IL-1β and IL-8 production using ELISA kits from eBioscience (San Diego, CA). […]
(§7) Supplementary Fig 4. Burned skin without infection and 2-day biofilm on skin without thermal damage had minimal changes in cytotoxicity and cytokine production compared to skin control without infection and thermal damage.
(§8) Thermally damaged epidermal skin was mock infected with PBS for 24 hours, followed by 24 hours treatment with 0.4% DJK-5 or water (a, b). The cytotoxicity (a) and IL-8 production (b) from culture supernatant beneath skin was determined. One day pre-established MRSA-lux and PAO1-lux skin biofilm was treated with vehicle control-water for 24 hours, changes in luminescence signal (c), bacteria load (d), skin cytotoxicity (e) and IL-8 level (f) was quantified. Error bars indicate mean with SD (n=3). One-way ANOVA, Dunnett’s multiple comparisons test (* P ≤ 0.05; ** P ≤ 0.01). […]

[5] = tested on: N/TERT epidermal skin; assay type: cell-based, human
Text: as §6, §7, §8

[6] = tested on: MRSA (USA300-LAC) biofilm on burned skin; test: MRSA USA300 thermal wounding skin model, colony count; assay type: cell-based, Staphylococcus aureus
Description: as §3
Thermal damage was created by burning 10-day air–liquid interface skins at 100 °C for 4 s with a digital soldering iron (FX888D, American Hakko Products, Inc., Santa Clarita, CA). The skin filter inserts were transferred to 12-well plates (Sigma-Aldrich) containing 800 μl/well fresh culture medium prior to bacterial infection. MRSA biofilm was established by seeding 2 × 10^6 CFU in 5 μl PBS on top of the thermal damaged skin and cultured at 37 °C and 5% CO2 for 24 h. […]

[7] = tested on: IL-8 production; test: IL-8 ELISA of culture supernatant, MRSA-infected burned skin; assay type: cell-based, human; conditions: burned skin with MRSA biofilm; 0.4% DJK-5, 24 h; ELISA of media below filter
Description: as §4, §5

[8] = tested on: MRSA-lux (MRSA SAP149) biofilm; test: One-day or three-day MRSA-lux biofilm on N/TERT epidermal skin model, CFU count and luminescence; assay type: cell-based, Staphylococcus aureus; conditions: for geometric mean of MRSA-lux bacteria recovered: untreated 1.3 × 10^8 CFU/skin, geometric mean of 3 to 9 biological replicates; for antibiofilm activity (CFU recovered) against pre-established MRSA-lux biofilm: peptide 0.1% topical, 5 to 6 biological replicates, Kruskal–Wallis, Dunn's test versus control
Text: as §1, §2, §3

[9] = tested on: N/TERT epidermal skin; assay type: cell-based, human; remark: listed apart in the source
Description: as §4, §5

VQWRAIRVRVIR [DJK-5, D-enantiomeric antibiofilm synthetic host defense peptide]
geometric mean of recovered PAO1-lux bacteria ([1]; 1-day biofilm, 0.4% (120 µg) DJK-5, 4 h, control 8.9 × 10^7 CFU/skin, geometric mean of 5 to 8 biological replicates): 1.9 × 10^2 CFU/skin | luminescence of PAO1-lux biofilm ([1]; 1-day biofilm, 0.4% DJK-5, 4 h): evident reduction in the luminescence signal | antibiofilm activity (CFU recovered) against pre-established PAO1-lux biofilm ([1]; 1-day biofilm): comparable antibiofilm activity against MRSA-lux and PAO1-lux | bacterial burden (colony count) ([1]; 3-day PAO1-lux biofilm, 0.4% DJK-5, 4 h): significantly decreased bacterial burden | luminescence of PAO1-lux biofilm ([1]; 3-day biofilm, 0.4% DJK-5, 4 h): wiped out luminescence signal | IL-1β production ([2]; burned skin with MRSA biofilm, 0.4% DJK-5, 24 h, ELISA of media below filter): significantly suppressed | geometric mean of recovered non-luminescent PAO1 bacteria [3]: 4.9 × 10^3 CFU/skin | IL-8 production compared to control skin [4]: slightly increased IL-8 production | increase in observed cytotoxicity compared to control skin [5]: ~ 5% | bacterial load on burned skin ([6]; skin burned 100 °C 4 s, 24 h MRSA biofilm, 0.4% DJK-5 (120 μg) in PBS topical, control 7.8 × 10^8 CFU/skin, geometric mean): 3.2 × 10^5 CFU/skin | IL-8 production [7]: significantly suppressed | luminescence of MRSA-lux biofilm ([8]; 1-day biofilm, 0.1% (30 μg total peptide), 4 h, ChemiDoc imaging): reduced the area of colonization | geometric mean of MRSA-lux bacteria recovered ([8]; 1-day biofilm, 0.1% DJK-5 (30 μg) topical, 4 h): 1.6 × 10^6 CFU/skin | luminescence of MRSA-lux biofilm ([8]; 1-day biofilm, 0.4% (120 μg), 4 h, ChemiDoc imaging): completely abolished the luminescence | geometric mean of MRSA-lux bacteria recovered ([8]; 1-day biofilm, 0.4% DJK-5 (120 μg) topical, 4 h): 2.1 × 10^4 CFU/skin | antibiofilm activity (CFU recovered) against pre-established MRSA-lux biofilm ([8]; 1-day biofilm, 4 h): comparable antibiofilm activity against MRSA-lux and PAO1-lux; also recorded: superior activity in eradicating MRSA biofilm | reduction of bacterial load ([8]; 3-day MRSA-lux biofilm, 0.4% DJK-5, within 4 h of treatment, versus untreated): 4 log orders of magnitude | luminescence of MRSA-lux biofilm ([8]; 3-day biofilm, 0.4% DJK-5, 4 h): successfully wiped out the bacterial luminescence

RRWIRVAVILRV [RI-1018, synthetic host defense peptide]
antibiofilm activity (CFU recovered) against pre-established PAO1-lux biofilm ([1]; 1-day biofilm): comparable antibiofilm activity against MRSA-lux and PAO1-lux | antibiofilm activity (CFU recovered) against pre-established MRSA-lux biofilm ([8]; 1-day biofilm, 4 h): comparable antibiofilm activity against MRSA-lux and PAO1-lux

KRIRWVILWRQV [RI-1002, synthetic host defense peptide]
antibiofilm activity (CFU recovered) against pre-established PAO1-lux biofilm ([1]; 1-day biofilm): comparable antibiofilm activity against MRSA-lux and PAO1-lux | antibiofilm activity (CFU recovered) against pre-established MRSA-lux biofilm ([8]; 1-day biofilm, 4 h): comparable antibiofilm activity against MRSA-lux and PAO1-lux

VQRWLIVWRIRK [compound 1002, Innate defense regulator peptide, a bactenecin derivative; anti-inflammatory synthetic HDP]
antibiofilm activity (CFU recovered) against pre-established PAO1-lux biofilm ([1]; 1-day biofilm): All of the peptides except 1002 significantly reduced | pro-inflammatory IL-1β release from MRSA infected burned skin ([2]; 1002 treatment alone, 24 h, ELISA): significant decreases | reduction in bacterial count compared to untreated biofilms ([6]; burned skin with MRSA biofilm, 0.4% 1002 alone, 24 h): 17 fold | antibiofilm activity (CFU recovered) against pre-established MRSA-lux biofilm ([8]; 1-day biofilm, 4 h): All of the peptides except 1002 significantly reduced | cytotoxicity from MRSA infected burned skin [9]: significant decreases

VRLIVAVRIWRR [compound 1018, synthetic host defense peptide]
antibiofilm activity (CFU recovered) against pre-established MRSA-lux biofilm ([8]; 1-day biofilm, 4 h): superior effects in eradicating MRSA-lux biofilms; also recorded: superior activity in eradicating MRSA biofilm

VQWRRIRVWVIR [DJK-6, synthetic host defense peptide]
antibiofilm activity (CFU recovered) against pre-established MRSA-lux biofilm ([8]; 1-day biofilm, 4 h): superior effects in eradicating MRSA-lux biofilms; also recorded: superior activity in eradicating MRSA biofilm

C/C(=C\C(=O)OCCCCCCCCC(=O)O)C[C@@H]1OC[C@H](C[C@@H]2O[C@H]2[C@@H](C)[C@H](C)O)[C@@H](O)[C@H]1O [mupirocin, reference compound]
bacterial load of MRSA-lux in the biofilm ([8]; 1-day biofilm, 1% mupirocin dissolved in 10% DMSO, topical, 4 h): did not have appreciable impact; also recorded: almost inactive
